According to patent US20090281054A1, “COMPOSITIONS AND METHODS COMPRISING CAPURAMYCIN ANALOGUES” (priority 2008, published 2009):
≈ marks a conversion by molar mass, not a printed value. Where two headings read alike, the source gives them in different places.

Tests used:
[1] = test system: M. avium complex (MAC); assay: MIC by microdilution method in 7H9 broth; format: cell-based; details: for MIC / MIC90: Mycobacterium avium; for MIC90: value in square brackets, read-out: MIC90
[2] = test system: M. abscessus (MAB; ATCC 700869); assay: MIC by microdilution method in 7H9 broth; format: cell-based; details: Mycobacteroides abscessus, ATCC700869; MAB 700869; read-out: MIC
[3] = target: translocase I (Escherichia coli, UniProt P0A6W3); assay: IC50 against translocase I; format: biochemical
[4] = test system: M. smegmatis (MSMG; MC2155); assay: MIC by microdilution method in 7H9 broth; format: cell-based; details: Mycolicibacterium smegmatis, MC2155|MC^2155; MSMG MC^2155; 72 hr; read-out: MIC
[5] = test system: M. kansaii (MKN; ATCC12478 & 35775); assay: MIC by microdilution method in 7H9 broth; format: cell-based, M. kansasii; details: Mycobacterium kansasii, read-out: MIC
[6] = 336 h, MAC isolates, 2 wk, read-out: MIC (range)
[7] = MAC strain NIH C1-1, read-out: MIC
[8] = MAC strain NIH C1-2, read-out: MIC
[9] = MAC strain NIH C1-3, read-out: MIC
[10] = MAC strain NIH C1-4, read-out: MIC
[11] = ATCC 12478 / ATCC 35775, MKN ATCC35775

Sequence of translocase I (P0A6W3 whole entry): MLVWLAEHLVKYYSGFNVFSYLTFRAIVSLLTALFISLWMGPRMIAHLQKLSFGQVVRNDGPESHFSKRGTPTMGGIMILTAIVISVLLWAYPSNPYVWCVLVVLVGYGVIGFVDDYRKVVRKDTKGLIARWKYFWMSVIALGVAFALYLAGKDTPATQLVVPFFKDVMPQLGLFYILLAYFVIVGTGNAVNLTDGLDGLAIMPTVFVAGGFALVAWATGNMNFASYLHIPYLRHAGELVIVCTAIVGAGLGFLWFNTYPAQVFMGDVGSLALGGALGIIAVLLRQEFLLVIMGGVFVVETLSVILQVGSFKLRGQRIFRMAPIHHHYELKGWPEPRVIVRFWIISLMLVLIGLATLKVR

SMILES | MIC [1, 6] [µg/mL] | MIC ([1]; MAC strain 100, read-out: MIC) [µg/mL] | MIC ([1]; MAC strain 101, read-out: MIC) [µg/mL] | MIC ([1]; MAC strain 104, read-out: MIC) [µg/mL] | MIC ([1]; MAC strain 109, read-out: MIC) [µg/mL] | MIC ([1]; MAC strain A5, read-out: MIC) [µg/mL] | MIC ([1]; MAC strain JSH1, read-out: MIC) [µg/mL] | MIC [1, 7] [µg/mL] | MIC [1, 8] [µg/mL] | MIC [1, 9] [µg/mL] | MIC [1, 10] [µg/mL] | MIC90 ([1]; MAC isolates) [µg/mL] | MIC [2] [µg/mL] | IC50 against translocase I [3] [µg/mL] | MIC [4] [µg/mL] | MIC [5, 11] [µg/mL] | MIC ([5]; MKN ATCC12478) [µg/mL] | IC50 [3] [nM] | MIC range ([1]; ten MAC isolates (Table 6)) [µg/mL]
CO[C@H]1[C@@H](O)[C@H](n2ccc(=O)[nH]c2=O)O[C@@H]1[C@@H](O[C@H]1OC(C(=O)Nc2ccc(C(F)(F)F)cc2)=C[C@H](O)[C@@H]1O)C(N)=O [RKS2033] | 1 to 8 (≈ 1.66 to 13.3 µM) | 2 (≈ 3.32 µM) | 2 (≈ 3.32 µM) | 1 (≈ 1.66 µM) | 1 (≈ 1.66 µM) | 2 (≈ 3.32 µM) | 2 (≈ 3.32 µM) | 4 (≈ 6.64 µM) | 2 (≈ 3.32 µM) | 8 (≈ 13.3 µM) | 2 (≈ 3.32 µM) | 4 (≈ 6.64 µM) | 2 (≈ 3.32 µM) | 0.03 (≈ 0.0498 µM) | 4 (≈ 6.64 µM) | 2 (≈ 3.32 µM) | 16 (≈ 26.6 µM) |  | 
CO[C@H]1[C@@H](O)[C@H](n2ccc(=O)[nH]c2=O)O[C@@H]1[C@@H](O[C@H]1OC(C(=O)Nc2ccc(F)c(C(F)(F)F)c2)=C[C@H](O)[C@@H]1O)C(N)=O [RKS2137] | 0.5 to 16 (≈ 0.806 to 25.8 µM) | 2 (≈ 3.22 µM) | 1 (≈ 1.61 µM) | 1 (≈ 1.61 µM) | 0.5 (≈ 0.806 µM) | 1 (≈ 1.61 µM) | 1 (≈ 1.61 µM) | 8 (≈ 12.9 µM) | 2 (≈ 3.22 µM) | 16 (≈ 25.8 µM) | 2 (≈ 3.22 µM) | 8 (≈ 12.9 µM) | 8 (≈ 12.9 µM) |  | 4 (≈ 6.45 µM) | 2 (≈ 3.22 µM) | > 32 | 12.9 | 
CO[C@H]1[C@@H](O)[C@H](n2ccc(=O)[nH]c2=O)O[C@@H]1[C@@H](O[C@H]1OC(C(=O)Nc2cccc(F)c2)=C[C@H](O)[C@@H]1O)C(N)=O [RKS2186] |  | 2 (≈ 3.62 µM) | 2 (≈ 3.62 µM) | 1 (≈ 1.81 µM) | 1 (≈ 1.81 µM) | 1 (≈ 1.81 µM) | 4 (≈ 7.24 µM) | 8 (≈ 14.5 µM) | 2 (≈ 3.62 µM) | 8 (≈ 14.5 µM) | 2 (≈ 3.62 µM) | 8 (≈ 14.5 µM) | 16 (≈ 29 µM) | 0.01 (≈ 0.0181 µM) | 4 (≈ 7.24 µM) | 4 (≈ 7.24 µM) | > 32 |  | 
CO[C@H]1[C@@H](O)[C@H](n2ccc(=O)[nH]c2=O)O[C@@H]1[C@@H](O[C@H]1OC(C(=O)Nc2ccc(F)c(F)c2F)=C[C@H](O)[C@@H]1O)C(N)=O [RKS2235] | 1 to 8 (≈ 1.7 to 13.6 µM) | 2 (≈ 3.4 µM) | 1 (≈ 1.7 µM) | 1 (≈ 1.7 µM) | 1 (≈ 1.7 µM) | 1 (≈ 1.7 µM) | 2 (≈ 3.4 µM) | 4 (≈ 6.8 µM) | 2 (≈ 3.4 µM) | 8 (≈ 13.6 µM) | 2 (≈ 3.4 µM) | 4 (≈ 6.8 µM) | 16 (≈ 27.2 µM) |  | 4 (≈ 6.8 µM) | 2 (≈ 3.4 µM) | > 32 | 17 | 
CO[C@H]1[C@@H](O)[C@H](n2ccc(=O)[nH]c2=O)O[C@@H]1[C@@H](O[C@H]1OC(C(=O)Nc2ccc(OC(F)(F)F)cc2)=C[C@H](O)[C@@H]1O)C(N)=O [RKS2241] | 0.5 to 16 (≈ 0.808 to 25.9 µM) | 2 (≈ 3.23 µM) | 1 (≈ 1.62 µM) | 0.5 (≈ 0.808 µM) | 0.5 (≈ 0.808 µM) | 1 (≈ 1.62 µM) | 2 (≈ 3.23 µM) | 8 (≈ 12.9 µM) | 1 (≈ 1.62 µM) | 16 (≈ 25.9 µM) | 2 (≈ 3.23 µM) | 8 (≈ 12.9 µM) | 2 (≈ 3.23 µM) |  | 4 (≈ 6.47 µM) | 2 (≈ 3.23 µM) | 32 (≈ 51.7 µM) | 24.3 | 
CO[C@H]1[C@@H](O)[C@H](n2ccc(=O)[nH]c2=O)O[C@@H]1[C@@H](O[C@H]1OC(C(=O)Nc2ccc([N+](=O)[O-])cc2)=C[C@H](O)[C@@H]1O)C(N)=O [RKS2243] | 0.5 to 8 (≈ 0.863 to 13.8 µM) | 1 (≈ 1.73 µM) | 1 (≈ 1.73 µM) | 1 (≈ 1.73 µM) | 0.5 (≈ 0.863 µM) | 0.5 (≈ 0.863 µM) | 1 (≈ 1.73 µM) | 4 (≈ 6.9 µM) | 1 (≈ 1.73 µM) | 8 (≈ 13.8 µM) | 1 (≈ 1.73 µM) | 4 (≈ 6.9 µM) | > 32 |  | 4 (≈ 6.9 µM) | 2 (≈ 3.45 µM) | 32 (≈ 55.2 µM) | 6.9 | 
CO[C@H]1[C@@H](O)[C@H](n2ccc(=O)[nH]c2=O)O[C@@H]1[C@@H](O[C@H]1OC(C(=O)Nc2ccc(Br)c(C)c2)=C[C@H](O)[C@@H]1O)C(N)=O [RKS2244] | 0.5 to 8 (≈ 0.797 to 12.8 µM) | 0.5 (≈ 0.797 µM) | 0.25 (≈ 0.398 µM) | 0.25 (≈ 0.398 µM) | 0.25 (≈ 0.398 µM) | 0.25 (≈ 0.398 µM) | 0.5 (≈ 0.797 µM) | 4 (≈ 6.38 µM) | 0.5 (≈ 0.797 µM) | 8 (≈ 12.8 µM) | 1 (≈ 1.59 µM) | 4 (≈ 6.38 µM) | 4 (≈ 6.38 µM) |  | 1 (≈ 1.59 µM) | 2 (≈ 3.19 µM) | > 32 | 12.4 | 0.25 to 8
COC(=O)C1=C[C@H](O)[C@H](O)[C@@H](O[C@@H](C(N)=O)[C@H]2O[C@@H](n3ccc(=O)[nH]c3=O)[C@H](O)[C@@H]2OC)O1 [RS 120029] |  | 32 (≈ 67.6 µM) | > 32 | 32 (≈ 67.6 µM) | 32 (≈ 67.6 µM) | 32 (≈ 67.6 µM) | > 32 | > 32 | > 32 | > 32 | > 32 | 32 (≈ 67.6 µM) | > 32 |  | > 32 | > 32 | > 32 |  | 
